pEC50, pKi: −log10 of the molar value. Where two headings read alike, the source gives them in different places.
Key:
[1] = biological target: T1, Human Neuropeptide Y2 Receptor (Homo sapiens, UniProt P49146); test: Radioligand binding competition assay (RLB); conditions: for pKi: Table 3, 125I-PYY(1-36) competition, read-out: Ki
T1 construct: purchased CHEMICON HTS066M
T1 sequence (P49146 1-381): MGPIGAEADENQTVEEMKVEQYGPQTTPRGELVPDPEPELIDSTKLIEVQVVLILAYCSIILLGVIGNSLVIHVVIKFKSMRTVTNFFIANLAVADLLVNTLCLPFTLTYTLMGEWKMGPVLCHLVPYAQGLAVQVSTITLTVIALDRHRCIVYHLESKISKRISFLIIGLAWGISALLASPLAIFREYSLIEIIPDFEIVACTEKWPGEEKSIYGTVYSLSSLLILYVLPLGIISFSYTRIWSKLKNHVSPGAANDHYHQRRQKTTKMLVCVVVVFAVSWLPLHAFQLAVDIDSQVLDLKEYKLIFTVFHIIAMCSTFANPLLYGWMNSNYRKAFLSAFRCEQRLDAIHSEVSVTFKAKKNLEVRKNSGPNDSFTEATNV
How it was run: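 Displacement of radioligand is measured after 2 h at room temperature with receptor membranes in Mg2+/Ca2+ HEPES buffer, pH 7.4. Filter-bound radioactivity is counted and IC50 obtained from curve fitting.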

[2] = biological target: T2, human NPY4 receptor (hY4R) (Homo sapiens, UniProt P50391); test: HTRF cAMP Gi assay, hY4R; format: cell-based; conditions: CHO-K1 cells
T2 construct: expressed in transfected cells; host or cells: CHO-K1
T2 sequence (P50391 whole entry): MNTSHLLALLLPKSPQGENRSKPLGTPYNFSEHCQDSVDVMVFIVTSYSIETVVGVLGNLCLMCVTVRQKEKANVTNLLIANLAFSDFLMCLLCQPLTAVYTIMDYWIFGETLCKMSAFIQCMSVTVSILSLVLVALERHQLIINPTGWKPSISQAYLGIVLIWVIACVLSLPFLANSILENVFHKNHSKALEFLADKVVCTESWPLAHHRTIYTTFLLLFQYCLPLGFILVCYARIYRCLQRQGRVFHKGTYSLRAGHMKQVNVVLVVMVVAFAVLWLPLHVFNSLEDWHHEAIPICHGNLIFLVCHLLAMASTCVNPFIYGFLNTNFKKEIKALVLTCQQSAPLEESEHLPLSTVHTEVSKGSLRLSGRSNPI

Solubility determination = conditions: for Sol6: pH 6; for Sol7: pH 7
How it was run: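 Sample: TFA-salt peptide at 10 mg/ml target in 0.1 M Na diphosphate, pH 6.4 or 7.0, shaken 2 h RT, filtered, diluted to 1 mg/ml.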

[3] = biological target: T3, human NPY5 receptor (hY5R) (Homo sapiens, UniProt Q15761); test: HTRF cAMP Gi assay, hY5R
T3 sequence (Q15761 1-445): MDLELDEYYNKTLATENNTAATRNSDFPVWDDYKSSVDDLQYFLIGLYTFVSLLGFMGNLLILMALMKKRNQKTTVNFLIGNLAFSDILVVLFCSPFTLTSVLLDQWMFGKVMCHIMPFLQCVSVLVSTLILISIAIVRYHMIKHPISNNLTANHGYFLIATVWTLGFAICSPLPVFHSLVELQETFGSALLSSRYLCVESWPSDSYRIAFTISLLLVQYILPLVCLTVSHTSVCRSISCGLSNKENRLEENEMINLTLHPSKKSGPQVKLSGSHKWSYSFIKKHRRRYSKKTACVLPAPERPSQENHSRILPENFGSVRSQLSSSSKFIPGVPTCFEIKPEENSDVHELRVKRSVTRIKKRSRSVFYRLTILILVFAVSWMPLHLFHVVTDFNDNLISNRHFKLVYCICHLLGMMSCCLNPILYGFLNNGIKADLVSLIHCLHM
Description: (§1) Briefly, the production of intracellular cAMP will generate a competition between unlabeled cAMP and exogenously added d2-cAMP for anti-cAMP antibodies conjugated to cryptate. CHO-K1 cells stably expressing the human NPY1, NPY2, NPY4 and NPY5 receptors were used with the cells brought to life from a frozen stock immediately before assay performance. 2000 cells per well were applied for all four NPY receptor subtype assays. A 384-well format was used applying a total volume of 20 μl using 5 μl cells, 2.5 μl peptide agonist, 2.5 μl forskolin and 5 μl of each of the fluorophores. […] Concentration-response evaluation of compounds was performed with 11 concentrations of agonist peptides (covering 3 decades). EC50 values were calculated by nonlinear regression using sigmoid concentration-response with variable slope.

[4] = biological target: T4, human NPY1 receptor (hY1R) (Homo sapiens, UniProt P25929); test: HTRF cAMP Gi assay, hY1R; format: cell-based; conditions: CHO-K1 cells
T4 construct: expressed in transfected cells; host or cells: CHO-K1
T4 sequence (P25929 1-384): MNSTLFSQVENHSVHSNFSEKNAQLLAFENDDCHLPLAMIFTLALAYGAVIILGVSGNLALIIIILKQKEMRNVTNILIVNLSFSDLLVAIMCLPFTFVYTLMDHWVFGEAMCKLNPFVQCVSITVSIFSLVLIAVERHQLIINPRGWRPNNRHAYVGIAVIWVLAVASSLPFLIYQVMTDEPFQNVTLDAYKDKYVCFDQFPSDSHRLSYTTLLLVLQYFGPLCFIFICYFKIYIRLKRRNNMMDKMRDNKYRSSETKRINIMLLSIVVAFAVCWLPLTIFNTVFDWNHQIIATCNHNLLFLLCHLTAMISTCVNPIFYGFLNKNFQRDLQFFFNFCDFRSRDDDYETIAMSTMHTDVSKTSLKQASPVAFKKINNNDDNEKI
Description: as §1

SMILES | pKi [1] | Ki ([1]; Table 8, DMSO stock, read-out: hY2R RLB Ki (nM) DMSO) [nM] | pEC50 [2] | Sol6 (Solubility determination) [mg/mL] | Sol7 (Solubility determination) [mg/mL] | pEC50 [3] | pEC50 [4]
CC[C@H](C)[C@H](NC(=O)[C@H](CCC(=O)O)NC(=O)[C@H](CCC(=O)O)NC(=O)[C@@H]1CCCN1C(=O)[C@H](CO)NC(=O)[C@H](C)NC(=O)[C@H](CC(=O)O)NC(=O)[C@H](CCC(=O)O)NC(=O)[C@H](CCC(=O)O)NC(=O)[C@@H]1CCCN1C(=O)[C@H](CCCCNC(=O)CCCCCNC(=O)CC[C@H](NC(=O)CCCCCCCCCCCCCCCCC(=O)O)C(=O)O)NC(=O)[C@H](C)NC(=O)[C@@H]1CCCN1C(=O)[C@H](C)NC(=O)CC(C)C)C(=O)N[C@@H](CCC(N)=O)C(=O)N[C@@H](CCCNC(=N)N)C(=O)N[C@@H](Cc1ccc(O)cc1)C(=O)N[C@@H](Cc1ccc(O)cc1)C(=O)N[C@H](C(=O)N[C@@H](CO)C(=O)N[C@@H](CC(C)C)C(=O)N[C@@H](CCCNC(=N)N)C(=O)N[C@@H](Cc1c[nH]cn1)C(=O)N[C@@H](Cc1ccc(O)cc1)C(=O)N[C@@H](Cc1ccc(O)cc1)C(=O)N[C@@H](CC(N)=O)C(=O)N[C@@H](Cc1c[nH]c2ccccc12)C(=O)N[C@@H](CC(C)C)C(=O)N[C@H](C(=O)N[C@@H](CCCNC(=N)N)C(=O)N[C@@H](CCC(N)=O)C(=O)N[C@@H](CCCNC(=N)N)C(=O)N[C@@H](Cc1ccc(O)cc1)C(N)=O)[C@@H](C)O)C(C)C [Compound 63, N{alpha-4}-(3-methylbutanoyl)-N{epsilon-7}-(6-[(4S)-4-carboxy-4-(17-carboxyheptadecanamido)butanamido]hexanoyl)-[4A,6A,7K,9E,17I,18Q,22V,28Y,30W,31L]-hPYY(4-36)] | 9.03 | 6.6 | < 5.30 | 10.0 | >10.0 | < 5.30 | < 5.30
CC[C@H](C)[C@H](NC(=O)[C@H](CCC(=O)O)NC(=O)[C@H](CCC(=O)O)NC(=O)[C@@H]1CCCN1C(=O)[C@@H](NC(=O)[C@H](C)NC(=O)[C@H](CC(=O)O)NC(=O)[C@H](CCC(=O)O)NC(=O)[C@H](CCC(=O)O)NC(=O)[C@@H]1CCCN1C(=O)[C@H](CCCCNC(=O)CCCCCNC(=O)CC[C@H](NC(=O)CCCCCCCCCCCCCCCCC(=O)O)C(=O)O)NC(=O)[C@H](C)NC(=O)[C@@H]1CCCN1C(=O)[C@H](C)NC(=O)CC(C)C)[C@@H](C)O)C(=O)N[C@@H](CCC(N)=O)C(=O)N[C@@H](CCCNC(=N)N)C(=O)N[C@@H](Cc1ccc(O)cc1)C(=O)N[C@@H](Cc1ccc(O)cc1)C(=O)N[C@H](C(=O)N[C@@H](CO)C(=O)N[C@@H](CC(C)C)C(=O)N[C@@H](CCCNC(=N)N)C(=O)N[C@@H](Cc1c[nH]cn1)C(=O)N[C@@H](Cc1ccc(O)cc1)C(=O)N[C@@H](Cc1ccc(O)cc1)C(=O)N[C@@H](CC(N)=O)C(=O)N[C@@H](Cc1c[nH]c2ccccc12)C(=O)N[C@@H](CC(C)C)C(=O)N[C@H](C(=O)N[C@@H](CCCNC(=N)N)C(=O)N[C@@H](CCC(N)=O)C(=O)N[C@@H](CCCNC(=N)N)C(=O)N[C@@H](Cc1ccc(O)cc1)C(N)=O)[C@@H](C)O)C(C)C [Compound 114, N{alpha-4}-(3-methylbutanoyl)-N{epsilon-7}-(6-[(4S)-4-carboxy-4-(17-carboxyheptadecanamido)butanamido]hexanoyl)-[4A,6A,7K,9E,13T,17I,18Q,22V,28Y,30W,31L]-hPYY(4-36)] | 9.02 | – | < 5.30 | 8.5 | 9.2 | < 5.30 | < 5.30
CC[C@H](C)[C@H](NC(=O)[C@H](CCC(=O)O)NC(=O)[C@H](CCC(=O)O)NC(=O)[C@@H]1CCCN1C(=O)[C@H](CCC(=O)O)NC(=O)[C@H](C)NC(=O)[C@H](CC(=O)O)NC(=O)[C@H](CCC(=O)O)NC(=O)[C@@H]1CCCN1C(=O)[C@@H]1CCCN1C(=O)[C@H](CCCCNC(=O)CCCCCNC(=O)CC[C@H](NC(=O)CCCCCCCCCCCCCCCCC(=O)O)C(=O)O)NC(=O)[C@H](CCC(=O)O)NC(=O)[C@@H]1CCCN1C(=O)[C@H](C)NC(=O)CC(C)C)C(=O)N[C@@H](CCC(N)=O)C(=O)N[C@@H](CCCNC(=N)N)C(=O)N[C@@H](Cc1ccc(O)cc1)C(=O)N[C@@H](Cc1ccc(O)cc1)C(=O)N[C@H](C(=O)N[C@@H](CO)C(=O)N[C@@H](CC(C)C)C(=O)N[C@@H](CCCNC(=N)N)C(=O)N[C@@H](Cc1c[nH]cn1)C(=O)N[C@@H](Cc1ccc(O)cc1)C(=O)N[C@@H](Cc1ccc(O)cc1)C(=O)N[C@@H](CC(N)=O)C(=O)N[C@@H](Cc1c[nH]c2ccccc12)C(=O)N[C@@H](CC(C)C)C(=O)N[C@H](C(=O)N[C@@H](CCCNC(=N)N)C(=O)N[C@@H](CCC(N)=O)C(=O)N[C@@H](CCCNC(=N)N)C(=O)N[C@@H](Cc1ccc(O)cc1)C(N)=O)[C@@H](C)O)C(C)C [Compound 118, N{alpha-4}-(3-methylbutanoyl)-N{epsilon-7}-(6-[(4S)-4-carboxy-4-(17-carboxyheptadecanamido)butanamido]hexanoyl)-[4A,7K,9P,13E,17I,18Q,22V,28Y,30W,31L]-hPYY(4-36)] | 9.00 | – | < 5.30 | 10.0 | 9.5 | < 5.30 | < 5.30
CC(C)CC(=O)N[C@@H](C)C(=O)N1CCC[C@H]1C(=O)N[C@@H](CCC(=O)O)C(=O)N[C@@H](CCCCNC(=O)CCCCCNC(=O)CC[C@H](NC(=O)CCCCCCCCCCCCCCCCC(=O)O)C(=O)O)C(=O)N1CCC[C@H]1C(=O)N[C@@H](CCC(=O)O)C(=O)N[C@@H](CCC(=O)O)C(=O)N[C@@H](C)C(=O)N[C@@H](C)C(=O)N[C@H](C(=O)N1CCC[C@H]1C(=O)N[C@@H](CCC(=O)O)C(=O)N[C@@H](CCC(=O)O)C(=O)N[C@@H](CC(C)C)C(=O)N[C@@H](CCC(N)=O)C(=O)N[C@@H](CCCNC(=N)N)C(=O)N[C@@H](Cc1ccc(O)cc1)C(=O)N[C@@H](Cc1ccc(O)cc1)C(=O)N[C@H](C(=O)N[C@@H](CO)C(=O)N[C@@H](CC(C)C)C(=O)N[C@@H](CCCNC(=N)N)C(=O)N[C@@H](Cc1c[nH]cn1)C(=O)N[C@@H](Cc1ccc(O)cc1)C(=O)N[C@@H](Cc1ccc(O)cc1)C(=O)N[C@@H](CC(N)=O)C(=O)N[C@@H](Cc1c[nH]c2ccccc12)C(=O)N[C@@H](CC(C)C)C(=O)N[C@H](C(=O)N[C@@H](CCCNC(=N)N)C(=O)N[C@@H](CCC(N)=O)C(=O)N[C@@H](CCCNC(=N)N)C(=O)N[C@@H](Cc1ccc(O)cc1)C(N)=O)[C@@H](C)O)C(C)C)[C@@H](C)O [Compound 128, N{alpha-4}-(3-methylbutanoyl)-N{epsilon-7}-(6-[(4S)-4-carboxy-4-(17-carboxyheptadecanamido)butanamido]hexanoyl)-[4A,7K,9E,11A,13T,18Q,22V,28Y,30W,31L]-hPYY(4-36)] | 8.54 | – | < 5.30 | 10.0 | >10.0 | < 5.30 | < 5.30

Source: patent US12391737B2, “Soluble NPY2 receptor agonists” (Boehringer Ingelheim International GmbH, priority 2020, dated 2025)
